Data as given in patent publication US20040259806A1 (priority 2001, published 2004).
Like-named read-outs stand apart in the source and are kept apart here.

Assays:
M. bovis 8 = type: in vivo, mice
peritoneal macrophages = assay: Phagocytosis and killing of Saccharomyces cerevisiae by peritoneal macrophages of treated infected mice; type: in vivo
Protocol: In order to study phagocytosis, peritoneal macrophages were plated at a concentration of 10^6 cells per Petri dish and media including 10^7 Saccharomyces cerevisiae cells, opsonized by mice serum was added. Results were evaluated using the Mann-Whitney test. Phagocytic activity was calculated after determination of percentage of macrophages involved in phagocytes. The phagocytic index was determined by calculating the average number of yeast phagocytosed per one cell. Killing activity was resolved by the number of yeast digested by macrophages after 1.5 h of incubation. Finally, the killing index was determined as follows: [formula]

tuberculosis = assay: SCV-07 therapy with continued traditional antituberculosis therapy in a patient (Example 2); type: in vivo, human
Source text: A patient was admitted to the hospital with infiltrative tuberculosis, destructive phase in the upper lobe and 6th segment of the right lung and 4-5th segments of the left lung. Prior to SCV-07 therapy, symptoms of bacterial intoxication, dyspnea and rales above the damaged lobes were present. […] Large foci of lung destruction surrounded by perifocal inflammation were found in the lingual lobe of the left lung. […] During immunological response assays, a decrease of CD4+ and CD8+ subsets and low lymphocyte blasttransformation responses with PHA and PPD were detected.
After two months of traditional therapy a small improvement in the patient's condition was seen; however, the reoentgenological picture was without significant change and immune responses remained inhibited.
SCV-07 was injected intramuscularly at 0.1 mg, once per day, for 5 days with continued traditional antituberculosis therapy (isoniazid at 600 mg/day intravenously, pyrazinamid at 1500 mg/day per so, rifampicin at 450 mg/day per os, kanamycin at 1000 mg/day intramuscularly). The clinical improvement was significant. Sputum culture tests became negative, cavities closed and infiltrative foci resolved. […] A normal range is approximately 26-40%. […] Finally, the blasttransformation response with PHA increased from 29% to 40%. A normal level is approximately 50%.

spleen cells = assay: Spleen cell proliferation (Con A, LPS, tuberculin) from treated infected mice; type: in vivo
Protocol: Spleens from mice were harvested aseptically, homogenized in RPMI-1640 medium (Biolot, Russia) and filtered through two layers of sterile gauze. Erythrocytes were lysed in 0.83% percent ammonium chloride solution after centrifugation of the homogenate. Spleen cells were washed twice with RPMI-1640 with 2 mM L-glutamine and […] gentamycin (Sigma, St. Louis, Mo.), then counted using a Goriaev hemocytometer.
Spleen cells and thymic cells were isolated as described above. In vitro, thymic cells were diluted to 10^7/ml in RPMI-1640 with 2 mM L-glutamine, 80 ìg/ml gentamycin and 4% heat-inactivated fetal calf serum (Sigma, St. Louis, Mo.). Spleen cells were diluted to 3×10^6/ml in RPMI-1640 with 2 mM L-glutamine, 80 ìg/ml gentamycin and 20% inactivated fetal calf serum. 0.5 ìg/ml Concanavalin A (Con A, Sigma, St. Louis, Mo.) was used to stimulate thymic cell proliferation. For spleen cell proliferation, 0.5 ìg/ml Con A, 10 ìg/ml lipopolysaccharide (Sigma, St. Louis, Mo.), and 50 ìg/ml tuberculin purified protein derivative (PPD) were utilized. The assay was carried out in 96-well plates and cell cultures were incubated for 72 hours, or 96 hours if tuberculin was used, at 37° C. in humidified 5% CO2, then pulsed with 5 ìl Ci/ml ^3H-thymidine overnight (approximately 16 h) and harvested on filters using a semi-automated harvester (Titertek™, Flow Laboratories, Norway). Filters were dried and proliferation calculated by ^3H-thymidine incorporation by counting samples in a liquid scintillation counter (LKB 1217 Racketa, Wallace, Sweden). Data was expressed in impulses per minute.

IL-2 = IL-2 production by Con A stimulated spleen cells (CTLL-2 assay); type: in vivo, mice
Protocol: In RPMI-1640, spleen cells were diluted to a concentration of 10^7/ml with 10% fetal calf serum, 2 mM L-glutamine and 80 ìg/ml gentamycin. A 100 ìl cell suspension was added to each well of a 96-well culture plate and cytokine production was induced by Con A at a final concentration of 2.5 ìg/ml. A control well included RPMI-1640. For 24 hours, cells were incubated at 37° C. and humidified in 5% CO2. Following incubation, […] of supernatant was removed from each well and stored at −70° C.
In order to determine the IL-2 concentration in cell culture supernatants, the CTLL-2 IL-2 dependent cell line was used. CTLL-IL-2 cells were washed twice in RPMI-1640 and counted with a Goriaev hemocytometer. Supernatants were diluted in 96-well culture plates at dilutions of 1:5, 1:15, 1:45 and 1:135 in a volume of 100 il. IL-2 standard dilutions were also prepared. Cells were diluted to 2×10^5/ml in RPMI-1640 with 10% inactivated fetal calf serum, 2 mM L-glutamine, 80 ìg/ml gentamycin. The 100 ìl suspension was added to each well of the culture plate and incubated for 48 h at 37° C. in 5% CO2 humidity. Ten ìl of 5 i Ci/ml ^3H-thymidine was added to each well 16 h before the end of incubation. Following incubation, the cells were harvested on filters through the use of a semi-automated harvester and samples were counted in a liquid scintillation counter.

IL-4 and IFN-γ = assay: INF-γ and IL-4 concentrations in blood serum; type: in vivo, mice
[1] = 24 days after end of therapy, Group 7 (0.1 ìg/kg ip) versus Group 3 (isoniazid control)
[2] = SCV-07 im 0.1 mg once per day for 5 days with continued traditional therapy
[3] = after 10 days, Groups 4, 5, 6 and 7

N[C@H](CCC(=O)N[C@@H](Cc1c[nH]c2ccccc12)C(=O)O)C(=O)O [SCV-07, γ-D-glutamyl-L-tryptophan]
M. bovis growth in spleen culture (M. bovis 8; 5 daily injections of 0.01 ìg/kg): decreases
differences between the control and experimental groups (M. bovis 8; 10 days and 17 days after termination of treatment, groups other than Group 7): lacked significance
growth of M bovis cultured from spleens (M. bovis 8; [1]): 200±0 CFU
lung weight index (M. bovis 8; [1]): 1.38±0.06
spleen weight index (M. bovis 8; [1]): 1.59±0.25
increase in body weight (M. bovis 8; 24 days after end of therapy, Group 7 (SCV-07 0.1 ìg/kg ip, 5 injections, with isoniazid) versus Group 3 (isoniazid control)): 30.8%
M. bovis growth in spleen cultures, significant decrease (M. bovis 8; Group 5 (1 ìg/kg ip, 5 injections), 24 days after treatment): this trend did not occur
M. bovis growth in spleen cultures (M. bovis 8; Group 6 (1 ìg/kg ip, 10 injections), 24 days after treatment, 275±14.1 CFU in the control): 190±21.5 CFU
lung damage index, difference to isoniazid control (Group 3) (M. bovis 8; Group 7 (0.1 ìg/kg ip), 4 days after therapy): Significant differences
lung damage index (M. bovis 8; Group 7 (0.1 ìg/kg ip), 10 days and 17 days after termination of treatment): considerably differed from the control
lung damage index, difference to untreated controls (Group 2) (M. bovis 8; Groups 5, 7, 8 and 9 (1, 0.1, 0.01 ìg/kg ip and 1 ìg/kg po), 4 days after therapy): significant differences
lung damage index (M. bovis 8; all doses, 4 days after the end of 5 days of therapy (Day 28 of infection)): decreased
macrophage killing (peritoneal macrophages; 24 days after treatment, Groups 6 and 7 (1.0 ìg/kg, 10 injections and 0.1 ìg/kg ip)): significantly improved
phagocytic activity (peritoneal macrophages; after 4 days, Group 7 (SCV-07 0.1 ìg/kg ip) compared to Group 3 (isoniazid control), p≦0.05, 64.2% in uninfected mice): 38.8%
phagocytic index (peritoneal macrophages; after 4 days, SCV-07 treatment): normalized
killing (peritoneal macrophages; after 4 days, SCV-07 versus control, p≦0.05): 244.4
killing and the killing index (peritoneal macrophages; after 17 days, Group 6 (1.0 ìg/kg ip, 10 injections)): significantly increased
phagocytic activity (peritoneal macrophages; after 17 days, Group 6 (1.0 ìg/kg ip, 10 injections) versus Group 3 (isoniazid control)): 60.4%
phagocytic index (peritoneal macrophages; after 17 days, Group 6 (1.0 ìg/kg ip, 10 injections) versus Group 3, p=0.05): 6.88 U
killing (peritoneal macrophages; ten days after therapy, Group 5 (1 ìg/kg, ip) compared to the control): significantly increased
ingestion and killing (peritoneal macrophages; ten days after therapy, Groups 8 and 9 (0.01 ìg/kg ip and 1 ìg/kg po)): tendency toward decreased
Immunological responses (tuberculosis; [2]): close to normal
Sputum culture tests (tuberculosis; [2]): negative
cavities (tuberculosis; [2]): closed
infiltrative foci (tuberculosis; [2]): resolved
clinical improvement (tuberculosis; SCV-07 intramuscularly 0.1 mg once per day for 5 days with continued traditional therapy): significant
CD3+ lymphocytes (tuberculosis; post SCV-07, increased from 1.011×10^9/l): 1.441e+09 L⁻¹
CD8+ numbers (tuberculosis; post SCV-07, increased from 12%, normal range approximately 26-40%): 21%
blasttransformation response with PHA (tuberculosis; post SCV-07, increased from 29%, normal level approximately 50%): 40%
Lymphocyte functional abilities (tuberculosis; post SCV-07 treatment): markedly elevated
spleen cell proliferative response with LPS (spleen cells; after 24 days, Group 6 (1 ìg/kg, 10 injections ip)): did not differ from uninfected mice
spleen cell proliferative response with Con A (spleen cells; after 24 days, Groups 6 and 7 (1 ìg/kg, 10 injections ip and 0.1 ìg/kg ip)): did not differ from uninfected mice
spleen cell proliferative response to tuberculin (spleen cells; later than 4 days of therapy, Group 6 (1 ìg/kg ip, 10 injections)): significantly higher than the control
IL-2 production (IL-2; 4 days after therapy, Group 7 (0.1 ìg/kg ip) compared to Group 3 (isoniazid control), Con A stimulated spleen cells): 41.6±5.6 U/ml
IL-2 level (IL-2; 24 days after therapy, Group 6 (1 ìg/kg ip, 10 injections) and Group 7 (0.1 ìg/kg ip)): did not differ from uninfected mice
IL-2 production (IL-2; all treated groups, all time points after therapy): increase
IFN-γ levels in blood serum (IL-4 and IFN-γ; [3]): increased
IL-4 levels in blood serum (IL-4 and IFN-γ; [3]): decreased
concentration of IFN-γ in blood serum (IL-4 and IFN-γ; after 17 days, Groups 4, 5, 6, 7 and 8 (significantly in group 7 and 8)): increased
IL-4 in blood serum (IL-4 and IFN-γ; after 17 days, Groups 5, 6 and 7): significantly decreased
